Source: PubChem BioAssay AID248 (DTP/NCI, 2004)
Values joined by “and” are separate entries in the source; they are usually repeats but may differ in a detail not shown here. Equal entries are not always repeated. Inconclusive results and toxic doses are left out.

Tested on: L1210 leukemia ip in BDF1 mice, survival T/C
Experiment: NCI In Vivo Anticancer Drug Screen. Data for tumor model L1210 Leukemia (intraperitoneal) in B6D2F1 (BDF1) mice
Settings: endpoint: mean survival time, higher = longer survival
Outline: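 Survival endpoint. Drug-treated group vs vehicle group, expressed as T divided by C. Tumor passaged by transplantation.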

[1] = dose: 100.0 mg/kg/injection, schedule: Q01DX009 (ip), vehicle: saline with Tween-80
[2] = dose: 100.0 mg/kg/injection, schedule: Q04DX003 (ip), vehicle: saline with Tween-80
[3] = dose: 200.0 mg/kg/injection, schedule: Q01DX009 (ip), vehicle: saline with Tween-80
[4] = dose: 200.0 mg/kg/injection, schedule: Q04DX003 (ip), vehicle: saline with Tween-80
[5] = dose: 400.0 mg/kg/injection, schedule: Q01DX009 (ip), vehicle: saline with Tween-80
[6] = dose: 400.0 mg/kg/injection, schedule: Q04DX003 (ip), vehicle: saline with Tween-80
[7] = dose: 100.0 mg/kg/injection, schedule: Q01DX009 (ip), vehicle: Klucel (hydroxypropylcellulose) (HPC)
[8] = dose: 200.0 mg/kg/injection, schedule: Q01DX009 (ip), vehicle: Klucel (hydroxypropylcellulose) (HPC)
[9] = dose: 400.0 mg/kg/injection, schedule: Q01DX009 (ip), vehicle: Klucel (hydroxypropylcellulose) (HPC)
[10] = dose: 25.0 mg/kg/injection, schedule: Q01DX009 (ip), vehicle: saline with Tween-80
[11] = dose: 50.0 mg/kg/injection, schedule: Q01DX009 (ip), vehicle: saline with Tween-80
[12] = dose: 100.0 mg/kg/injection, schedule: Q04DX003 (ip), vehicle: Klucel (hydroxypropylcellulose) (HPC)
[13] = dose: 200.0 mg/kg/injection, schedule: Q04DX003 (ip), vehicle: Klucel (hydroxypropylcellulose) (HPC)
[14] = dose: 400.0 mg/kg/injection, schedule: Q04DX003 (ip), vehicle: Klucel (hydroxypropylcellulose) (HPC)

[O-][n+]1c(CN2CCCCC2)nc2cccc3c2c1-c1ccccc1-3
T/C [1]: 97 % of control | T/C [2]: 101 % of control | T/C [3]: 100 % of control | T/C [4]: 101 % of control | T/C [5]: 107 % of control | T/C [6]: 100 % of control

CCCCCCCCCCCCCCCCCC(=O)N/N=C/c1cccc([N+](=O)[O-])c1
T/C [7]: 94 % of control | T/C [8]: 96 % of control | T/C [9]: 88 % of control

O=C1c2ccccc2C(=O)C1c1nc2ccccc2cc1O
T/C (dose: 12.5 mg/kg/injection, schedule: Q01DX009 (ip), vehicle: saline with Tween-80): 94 % of control | T/C (dose: 12.5 mg/kg/injection, schedule: Q04DX002 (ip), vehicle: saline with Tween-80): 96 % of control | T/C [10]: 96 % of control and 102 % of control | T/C (dose: 25.0 mg/kg/injection, schedule: Q04DX002 (ip), vehicle: saline with Tween-80): 104 % of control | T/C [11]: 102 % of control | T/C (dose: 50.0 mg/kg/injection, schedule: Q04DX002 (ip), vehicle: saline with Tween-80): 89 % of control | T/C (dose: 115.0 mg/kg/injection, schedule: Q01DX009 (ip), vehicle: saline with Tween-80): 93 % of control | T/C (dose: 170.0 mg/kg/injection, schedule: Q01DX009 (ip), vehicle: saline with Tween-80): 100 % of control

c1ccc2c(c1)CC1Sc3ccccc3N=C21 (centres undefined)
T/C [2]: 103 % of control | T/C [4]: 95 % of control

C=CCSc1ccnc(N)n1
T/C (dose: 50.0 mg/kg/injection, schedule: Q01DX001 (ip), vehicle: Klucel (hydroxypropylcellulose) (HPC)): 103 % of control | T/C (dose: 100.0 mg/kg/injection, schedule: Q01DX001 (ip), vehicle: Klucel (hydroxypropylcellulose) (HPC)): 101 % of control

CN(C)C(=S)NN
T/C (dose: 1.56 mg/kg/injection, schedule: Q01DX009 (ip), vehicle: saline with Tween-80): 111 % of control | T/C (dose: 3.12 mg/kg/injection, schedule: Q01DX009 (ip), vehicle: saline with Tween-80): 117 % of control

CC1(C)C(C#N)C(=O)N(Cc2ccccc2)C(=O)C1C#N (centres undefined)
T/C [2]: 101 % of control | T/C [4]: 93 % of control

COc1ccc(NC(=S)NC2CCCCC2)cc1
T/C (dose: 100.0 mg/kg/injection, schedule: Q04DX003 (ip), vehicle: other): 94 % of control | T/C (dose: 200.0 mg/kg/injection, schedule: Q04DX003 (ip), vehicle: other): 88 % of control | T/C (dose: 400.0 mg/kg/injection, schedule: Q04DX003 (ip), vehicle: other): 90 % of control

OC1/C=C\CCCCC1 (centres undefined)
T/C (dose: 100.0 mg/kg/injection, schedule: Q01DX001 (ip), vehicle: saline): 98 % of control | T/C (dose: 200.0 mg/kg/injection, schedule: Q01DX001 (ip), vehicle: saline): 93 % of control | T/C (dose: 400.0 mg/kg/injection, schedule: Q01DX001 (ip), vehicle: saline): 98 % of control

O=C(NO)c1cc(Br)cc(Br)c1O
T/C [10]: 98 % of control | T/C [11]: 102 % of control | T/C [1]: 100 % of control | T/C (dose: 100.0 mg/kg/injection, schedule: Q04DX002 (ip), vehicle: saline with Tween-80): 93 % of control | T/C (dose: 200.0 mg/kg/injection, schedule: Q04DX002 (ip), vehicle: saline with Tween-80): 97 % of control | T/C (dose: 400.0 mg/kg/injection, schedule: Q04DX002 (ip), vehicle: saline with Tween-80): 200 % of control

CC(C)(Br)C(=O)c1ccc(-c2ccccc2)cc1
T/C (dose: 25.0 mg/kg/injection, schedule: Q01DX009 (ip), vehicle: water): 101 % of control | T/C (dose: 50.0 mg/kg/injection, schedule: Q01DX009 (ip), vehicle: water): 101 % of control | T/C [7]: 89 % of control | T/C (dose: 100.0 mg/kg/injection, schedule: Q01DX009 (ip), vehicle: water): 98 % of control | T/C [12]: 100 % of control | T/C [8]: 87 % of control | T/C (dose: 200.0 mg/kg/injection, schedule: Q01DX009 (ip), vehicle: water): 95 % of control | T/C [13]: 94 % of control | T/C [9]: 92 % of control | T/C (dose: 400.0 mg/kg/injection, schedule: Q01DX009 (ip), vehicle: water): 92 % of control | T/C [14]: 91 % of control

CCCCCCCCCCCCCCCC(=O)N(CCCN)CCCCN(CCCN)C(=O)CCCCCCCCCCCCCCC
T/C (dose: 100.0 mg/kg/injection, schedule: Q01DX001 (ip), vehicle: saline with Tween-80): 100 % of control | T/C [1]: 103 % of control | T/C [2]: 110 % of control | T/C (dose: 200.0 mg/kg/injection, schedule: Q01DX001 (ip), vehicle: saline with Tween-80): 96 % of control | T/C [3]: 96 % of control | T/C [4]: 107 % of control | T/C (dose: 400.0 mg/kg/injection, schedule: Q01DX001 (ip), vehicle: saline with Tween-80): 104 % of control | T/C [5]: 96 % of control | T/C [6]: 111 % of control

NC(=S)NNC(=O)Nc1ccc(F)c(Cl)c1
T/C (dose: 12.5 mg/kg/injection, schedule: Q01DX009 (ip), vehicle: other): 94 % of control | T/C (dose: 25.0 mg/kg/injection, schedule: Q01DX009 (ip), vehicle: other): 93 % of control | T/C (dose: 50.0 mg/kg/injection, schedule: Q01DX009 (ip), vehicle: other): 96 % of control

C[N+](C)(Cc1ccc(Cl)cc1)C1c2ccccc2-c2ccccc21
T/C (dose: 6.0 mg/kg/injection, schedule: Q04DX003 (ip), vehicle: saline): 93 % of control | T/C (dose: 12.0 mg/kg/injection, schedule: Q04DX003 (ip), vehicle: saline): 102 % of control | T/C (dose: 12.5 mg/kg/injection, schedule: Q01DX009 (ip), vehicle: saline): 106 % of control | T/C (dose: 25.0 mg/kg/injection, schedule: Q01DX009 (ip), vehicle: saline): 101 % of control | T/C (dose: 25.0 mg/kg/injection, schedule: Q04DX003 (ip), vehicle: saline): 94 % of control and 91 % of control | T/C (dose: 50.0 mg/kg/injection, schedule: Q01DX009 (ip), vehicle: saline): 98 % of control | T/C (dose: 50.0 mg/kg/injection, schedule: Q04DX003 (ip), vehicle: saline): 87 % of control

O=C(Nc1cccc(C2=NCCCN2)c1)Nc1ccc(NC(=O)Nc2cccc(C3=NCCCN3)c2)c(Cl)c1
T/C (dose: 0.47 mg/kg/injection, schedule: Q01DX Z (ip), vehicle: carboxymethylcellulose (CMC)): 121 % of control | T/C (dose: 0.93 mg/kg/injection, schedule: Q01DX Z (ip), vehicle: carboxymethylcellulose (CMC)): 118 % of control | T/C (dose: 3.75 mg/kg/injection, schedule: Q01DX Z (ip), vehicle: carboxymethylcellulose (CMC)): 156 % of control and 204 % of control | T/C (dose: 7.5 mg/kg/injection, schedule: Q01DX Z (ip), vehicle: carboxymethylcellulose (CMC)): 229 % of control | T/C (dose: 18.0 mg/kg/injection, schedule: Q01DX001 (ip), vehicle: carboxymethylcellulose (CMC)): 152 % of control | T/C (dose: 25.0 mg/kg/injection, schedule: Q01DX Z (oral), vehicle: carboxymethylcellulose (CMC)): 101 % of control | T/C (dose: 26.0 mg/kg/injection, schedule: Q01DX001 (ip), vehicle: carboxymethylcellulose (CMC)): 150 % of control | T/C (dose: 26.0 mg/kg/injection, schedule: Q01DX001 (ip), vehicle: other): 154 % of control | T/C (dose: 40.0 mg/kg/injection, schedule: Q01DX001 (ip), vehicle: carboxymethylcellulose (CMC)): 150 % of control and 162 % of control | T/C (dose: 40.0 mg/kg/injection, schedule: Q01DX001 (ip), vehicle: other): 171 % of control | T/C (dose: 50.0 mg/kg/injection, schedule: Q01DX Z (oral), vehicle: carboxymethylcellulose (CMC)): 98 % of control | T/C (dose: 60.0 mg/kg/injection, schedule: Q01DX001 (ip), vehicle: carboxymethylcellulose (CMC)): 173 % of control and 200 % of control | T/C (dose: 60.0 mg/kg/injection, schedule: Q01DX001 (ip), vehicle: other): 185 % of control | T/C (dose: 80.0 mg/kg/injection, schedule: Q01DX001 (ip), vehicle: carboxymethylcellulose (CMC)): 236 % of control | T/C (dose: 100.0 mg/kg/injection, schedule: Q01DX Z (oral), vehicle: carboxymethylcellulose (CMC)): 104 % of control | T/C (dose: 200.0 mg/kg/injection, schedule: Q01DX Z (oral), vehicle: carboxymethylcellulose (CMC)): 101 % of control

NS(=O)(=O)N1CCCCC1
T/C (dose: 9.5 mg/kg/injection, schedule: Q01DX001 (ip), vehicle: saline): 104 % of control | T/C (dose: 19.0 mg/kg/injection, schedule: Q01DX001 (ip), vehicle: saline): 104 % of control | T/C (dose: 38.0 mg/kg/injection, schedule: Q01DX001 (ip), vehicle: saline): 95 % of control

C=C1C=C(c2ccccc2)N(C(=O)c2ccccc2I)CCN1C(=O)c1ccccc1I
T/C [12]: 114 % of control | T/C [13]: 89 % of control | T/C [14]: 94 % of control
